Measured values taken from US20080145313A1, “Compositions and Methods for the Treatment and Prevention of Neoplastic Disorders” (Genesis Research & Development Corporation Limited, priority 2006, published 2008).

What was measured:
A549 cells = assay: Growth inhibition of siRNA-transfected A549 cells, SYBR Green I DNA content; assay type: cell-based, human; settings: for Growth Inhibition in A549 cells / Growth Inhibition in A549 cells by 10 nM siRNA: 10 nM siRNA, DNA content 96 hours after transfection; for Growth Inhibition in A549 cells by 10 nM siRNA: transporter gene targets
Method in brief: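 A549 cells reverse-transfected with 10 nM Stealth siRNAs via Lipofectamine RNAiMAX, seeded at 5×10^3 cells/cm^2 in RPMI 1640/10% FCS; non-specific siRNA control. DNA content read 96 h post-transfection by SYBR Green I fluorescence (ex 485/em 535 nm) after freeze-thaw and Triton X-100 lysis; mean of three wells.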

A549 xenograft tumor = assay: Xenograft tumor growth of A549 cells transfected with siRNA pre-implantation in CD-1 nude mice; assay type: in vivo, mouse; settings: for tumor growth inhibition compared to the control groups: cells transfected pre-implantation, monitored 33 or 26 days; for tumor growth rate compared to control groups: A549 cells transfected with siRNA before s.c. inoculation
Description: To determine the effect of RRM1 knockdown on tumor growth, A549 cells (human lung cancer cell line; ATCC No. CCL-185) were reverse-transfected prior to implantation in CD-1 nude mice. In 175 cm^2 culture flasks, 10×10^6 A549 cells (in RPMI supplemented with 10% fetal calf serum) were added to pre-made lipoplexes. To make lipoplexes, Lipofectamine RNAiMAX in serum-free RPMI was added to an equal volume of serum-free RPMI containing siRNA (RRM1-2; SEQ ID NO: 4831 (DNA), and SEQ ID NO: 5137 (RNA)) and a control siRNA (SEQ ID NO: 4804 (DNA), and SEQ ID NO: 5301 (RNA)). After addition of cells, the final concentration of siRNA in the flask was 10 nM. Untransfected cells served as a further control. Flasks were incubated at 37° C. for 24 h to allow transfection to proceed.
The cells were harvested by trypsinization 24 h after the transfection, washed twice in PBS and viable cells were counted. Equal numbers of cells (1×10^7) were inoculated into CD-1 nude mice (n=7-9). Briefly, 5 to 7 weeks old nude mice were subcutaneously (s.c.) injected in the right flank with A549 cells in 100 μl PBS. Tumor growth was monitored 3 times per week by measuring tumor sizes using a digital caliper. Tumor volume was expressed in […] using the formula: V=a^2×b×0.52, where a and b represent the minimum and maximum tumor diameter, respectively. Mean tumor volumes calculated from each measurement were then plotted in a standard graph to compare the tumor growth of transfected cells to that of control.
To determine the effect of siRNA-mediated knockdown of HK-II, CAD, IMPDH2, RRM2, SLC16A1 and SLC29A1 on tumor growth, A549 cells (human lung cancer cell line; ATCC No. CCL-185) were reverse-transfected prior to implantation in CD-1 nude mice as described above with siRNAs given in SEQ ID NO: 5307 (DNA), and SEQ ID NO: 5304 (RNA) for RRM2, SEQ ID NO: 4932 (DNA), and SEQ ID NO: 5227 (RNA) for ENT1, SEQ ID NO: 4813 (DNA), and SEQ ID NO: 5119 (RNA) for HK-II, SEQ ID NO: 4827 (DNA), and SEQ ID NO: 5133 (RNA) for CAD, SEQ ID NO: 4879 (DNA), and SEQ ID NO: 5182 (RNA) for IMPDH2 and SEQ ID NO: 4924 (DNA), and SEQ ID NO: 5219 (RNA) for SLC16A1, respectively. The siRNA given in SEQ ID NO: 4804 (DNA), and SEQ ID NO: 5301 (RNA) was used as control.
In two separate experiments, CD-1 mice were divided into five groups that received untransfected A549 cells, cells transfected with control siRNA or three different siRNAs (as listed above), respectively. Cells were transfected in vitro using the method as described in Example 8, and 24 h after transfection, s.c. inoculated into mice. Tumor growth was measured 3 times per week. In the first experiment, mice received cells transfected with siRNA targeting RRM2, HK-II or SLC29A1 and were monitored for 33 days. In the second experiment, mice received cells transfected with siRNA targeting CAD, IMPDH2 or SLC16A1, and were monitored for 26 days. […] Similarly, preliminary data indicated tumor growth rate was reduced for the groups receiving cells transfected with siRNA targeting CAD and SLC16A1. Twenty-six days after cell inoculation, the tumor volume for mice with cells transfected with siRNA targeting CAD or SLC16A1 was 97.2±7.3 mm^3 or 110.1±28.1 mm^3, respectively.

[1] = tested on: target transcript mRNA in A549 cells; assay: Level of mRNA of target transcript in A549 cells by quantitative RT-PCR (Tables 12 and 13); assay type: cell-based, human; settings: 24 h post-transfection; for mRNA knockdown of transporter gene target transcript, 0.1 nM / mRNA knockdown of energy and metabolism gene target transcript, 0.1 nM: 0.1 nM siRNA; for mRNA knockdown of transporter gene target transcript, 1 nM / mRNA knockdown of energy and metabolism gene target transcript, 1 nM: 1 nM siRNA
Method in brief: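 A549 cells were transfected with siRNA at 0.1, 1.0 and 10 nM. RNA was extracted 24 h later, reverse-transcribed with random primers, and target mRNA quantified by SYBR Green qRT-PCR. Values were normalised to housekeeping genes HPRT and Lamin.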

Substance	Growth Inhibition in A549 cells (A549 cells)	mRNA knockdown of transporter gene target transcript, 0.1 nM [1]	mRNA knockdown of transporter gene target transcript, 1 nM [1]	Growth Inhibition in A549 cells by 10 nM siRNA (A549 cells)	also measured
SEQ ID NO: 4813: siRNA targeting HK-II (chain 1 AATGAGACCAATCTCACAGTTGTGG; chain 2 AAUGAGACCAAUCUCACAGUUGUGG; chemistry not given here; one strand in two spellings)	++ (inhibits by at least 75%)	–	–	–	tumor growth inhibition compared to the control groups (A549 xenograft tumor): No tumor growth inhibition
SEQ ID NO: 4827: siRNA targeting CAD (chain 1 TTCAAGAGAATTTGCTGCCTCGCTC; chain 2 UUCAAGAGAAUUUGCUGCCUCGCUC; chemistry not given here; one strand in two spellings)	+ (inhibits by at least 50%)	–	–	–	tumor growth rate compared to control groups (A549 xenograft tumor): reduced; tumor volume (A549 xenograft tumor; twenty-six days after cell inoculation, preliminary data): 97.2±7.3 mm^3
SEQ ID NO: 4831: Stealth siRNA targeting RRM1 (chain 1 TAGAAGTGCATACTAGTGAGTTTGC; chain 2 UAGAAGUGCAUACUAGUGAGUUUGC; Stealth siRNA, chemical pattern not given here; one strand in two spellings)	++ (inhibits by at least 75%)	–	–	–	growth inhibition, A549 (A549 cells; 0.1 nM siRNA, 96 h post-transfection, normalized to control siRNA): 50%; mice with measurable tumors (A549 xenograft tumor; A549 cells transfected with 10 nM siRNA 24 h before s.c. inoculation): two of eight; tumor growth rate compared to control groups (A549 xenograft tumor): reduced dramatically; average tumor size (A549 xenograft tumor; six weeks after the cell inoculation, 10 nM siRNA pre-implantation): 49.1±18.4 mm^3
SEQ ID NO: 4879: siRNA targeting IMPDH2 (chain 1 AATACCGCCTGTAAGCGCCATTGCT; chain 2 AAUACCGCCUGUAAGCGCCAUUGCU; Both strands are one antisense strand in DNA/RNA notation, chemistry not given here, further chemistry not given here; one strand in two spellings)	++ (inhibits by at least 75%)	–	–	–	tumor growth inhibition compared to the control groups (A549 xenograft tumor): No tumor growth inhibition
SEQ ID NO: 4972: siRNA targeting ABCC4 (MRP4) (chain 1 AAATAGTTAAGGTCGAGGGCTGTCC; chain 2 AAAUAGUUAAGGUCGAGGGCUGUCC; chemistry not given here; one strand in two spellings)	–	− (<50% mRNA knockdown)	++ (70-90% mRNA knockdown)	− (no growth inhibition)	–
SEQ ID NO: 4973: siRNA targeting ABCC5 (MRP5) (chain 1 TAAGATGGCAACAACGGGTCCTCCA; chain 2 UAAGAUGGCAACAACGGGUCCUCCA; chemistry not given here; one strand in two spellings)	–	− (<50% mRNA knockdown)	− (<50% mRNA knockdown)	− (no growth inhibition)	–
SEQ ID NO: 4974: siRNA targeting ABCC5 (MRP5) (chain 1 AACCTCTTCCATTAGAAACAAACTC; chain 2 AACCUCUUCCAUUAGAAACAAACUC; chemistry not given here; one strand in two spellings)	–	− (<50% mRNA knockdown)	+ (50-70% mRNA knockdown)	+ (inhibits by at least 50%)	–
SEQ ID NO: 4975: siRNA targeting ABCC5 (MRP5) (chain 1 ATTCTGAGCTGAGAATGCATGGAGG; chain 2 AUUCUGAGCUGAGAAUGCAUGGAGG; chemistry not given here; one strand in two spellings)	–	− (<50% mRNA knockdown)	+ (50-70% mRNA knockdown)	++ (inhibits by at least 75%)	–
SEQ ID NO: 4977: siRNA targeting ABCB1 (MDR1) (chain 1 AAACGATGAGCTATCACAATGGTGG; chain 2 AAACGAUGAGCUAUCACAAUGGUGG; chemistry not given here; one strand in two spellings)	–	− (<50% mRNA knockdown)	− (<50% mRNA knockdown)	− (no growth inhibition)	–
SEQ ID NO: 4978: siRNA targeting ABCB1 (MDR1) (chain 1 TTGGTACTAAGCTTTCTGTCTTGGG; chain 2 UUGGUACUAAGCUUUCUGUCUUGGG; chemistry not given here; one strand in two spellings)	–	− (<50% mRNA knockdown)	− (<50% mRNA knockdown)	− (no growth inhibition)	–
SEQ ID NO: 5306: Stealth siRNA targeting RRM2 (chain 1 TGTCCAGGTGTTTGAACATCAGGC; chain 2 UGUACCAGGUGUUUGAACAUCAGGC; Stealth siRNA, chemical pattern not given here)	++ (inhibits by at least 75%)	–	–	–	mRNA knockdown of energy and metabolism gene target transcript, 0.1 nM [1]: ++ (70-90% mRNA knockdown); mRNA knockdown of energy and metabolism gene target transcript, 1 nM [1]: + (50-70% mRNA knockdown)
SEQ ID NO: 5308: Stealth siRNA targeting RRM2 (chain 1 TTATACATCTGCCAGATATCATGGT; chain 2 UUAUACAUCUGCCAGAUAUCAUGGU; Stealth siRNA, chemical pattern not given here; one strand in two spellings)	++ (inhibits by at least 75%)	–	–	–	mRNA knockdown of energy and metabolism gene target transcript, 0.1 nM [1]: ++ (70-90% mRNA knockdown); mRNA knockdown of energy and metabolism gene target transcript, 1 nM [1]: ++ (70-90% mRNA knockdown)
